Test results taken from PubChem BioAssay (NCI).
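Grown in 96-well plates, cells were treated for 48 hours with each compound at five concentrations. Insufficient inhibition: endpoint recorded as highest concentration tested. The concentration for full growth arrest is given as TGI.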

Legend:
Test in all cases: DTP human tumour cell line panel, 48 h
786-0 renal = test system: 786-0 renal
HCC-2998 colon = test system: HCC-2998 colon
K-562 leukemia = test system: K-562 leukemia
NCI-H23 lung = test system: NCI-H23 lung
OVCAR-3 ovarian = test system: OVCAR-3 ovarian
OVCAR-8 ovarian = test system: OVCAR-8 ovarian
SF-539 CNS = test system: SF-539 CNS
SR leukemia = test system: SR leukemia
SW-620 colon = test system: SW-620 colon
UACC-62 melanoma = test system: UACC-62 melanoma

Measured: TGI

O=C1c2cccc3cc([N+](=O)[O-])cc(c23)C(=O)N1NC1=NCCN1
> 100 µM: all assays above
